Measured values taken from ChEMBL document CHEMBL1201862, “PubChem BioAssay data set” (2004).
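Briefly, cells in 96-well plates were exposed to five compound concentrations for 48 h, and endpoints were estimated by linear interpolation. Here, GI50 denotes the concentration required for 50% inhibition of growth.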 Calls of active or inactive are those of the source. Rule as the data show it: active = GI50 up to about 1.1 µM and inactive = higher.

Assays:
Assay in all cases: NCI anticancer screen, dose series, 48 h
[1] = tested on: UO-31
[2] = tested on: U-251
[3] = tested on: RPMI-8226
[4] = tested on: OVCAR-3
[5] = tested on: SF-539
[6] = tested on: CAKI-1
[7] = tested on: SK-MEL-2
[8] = tested on: SF-295
[9] = tested on: OVCAR-5
[10] = tested on: SF-268
[11] = tested on: MDA-MB-435
[12] = tested on: RXF 393
[13] = tested on: NCI-H522
[14] = tested on: TK-10
[15] = tested on: OVCAR-8
[16] = tested on: HT-29
[17] = tested on: Malme-3M
[18] = tested on: SK-MEL-5
[19] = tested on: Hs-578T
[20] = tested on: LOX IMVI
[21] = tested on: UACC-257
[22] = tested on: M14
[23] = tested on: CCRF-CEM
[24] = tested on: UACC-62
[25] = tested on: NCI-H460
[26] = tested on: SK-OV-3
[27] = tested on: SK-MEL-28
[28] = tested on: NCI/ADR-RES
[29] = tested on: K562
[30] = tested on: NCI-H23
[31] = tested on: PC-3
[32] = tested on: MOLT-4
[33] = tested on: SR
[34] = tested on: MCF7
[35] = tested on: MDA-MB-231
[36] = tested on: DU-145
[37] = tested on: HCC 2998
[38] = tested on: SN12C
[39] = tested on: ACHN
[40] = tested on: 786-0
[41] = tested on: HOP-62
[42] = tested on: EKVX
[43] = tested on: KM12
[44] = tested on: A549
[45] = tested on: MDA-N
[46] = tested on: HL-60
[47] = tested on: A498
[48] = tested on: SNB-75
[49] = tested on: SW-620
[50] = tested on: OVCAR-4
[51] = tested on: NCI-H226
[52] = tested on: COLO 205
[53] = tested on: IGROV-1
[54] = tested on: HCT-116
[55] = tested on: HCT-15
[56] = tested on: SNB-19
[57] = tested on: T47D
[58] = tested on: HOP-92

What does the source list for `C=C(Br)CN(C(C)=O)C1CCCCC1`?
GI50 [1]: > 100 µM (inactive); GI50 [2]: > 100 µM (inactive); GI50 [3]: > 100 µM (inactive); GI50 [4]: > 100 µM (inactive); GI50 [5]: > 100 µM (inactive); GI50 [6]: > 100 µM (inactive); GI50 [7]: > 100 µM (inactive); GI50 [8]: > 100 µM (inactive); GI50 [9]: > 100 µM (inactive); GI50 [10]: > 100 µM (inactive); GI50 [11]: > 100 µM (inactive); GI50 [12]: > 100 µM (inactive); GI50 [13]: > 100 µM (inactive); GI50 [14]: > 100 µM (inactive); GI50 [15]: > 100 µM (inactive); GI50 [16]: > 100 µM (inactive); GI50 [17]: > 100 µM (inactive); GI50 [18]: > 100 µM (inactive); GI50 [19]: > 100 µM (inactive); GI50 [20]: > 100 µM (inactive); GI50 [21]: > 100 µM (inactive); GI50 [22]: > 100 µM (inactive); GI50 [23]: > 100 µM (inactive); GI50 [24]: > 100 µM (inactive); GI50 [25]: > 100 µM (inactive); GI50 [26]: > 100 µM (inactive); GI50 [27]: > 100 µM (inactive); GI50 [28]: > 100 µM (inactive); GI50 [29]: > 100 µM (inactive); GI50 [30]: > 100 µM (inactive); GI50 [31]: > 100 µM (inactive); GI50 [32]: > 100 µM (inactive); GI50 [33]: > 100 µM (inactive); GI50 [34]: > 100 µM (inactive); GI50 [35]: > 100 µM (inactive); GI50 [36]: > 100 µM (inactive); GI50 [37]: > 100 µM (inactive); GI50 [38]: > 100 µM (inactive); GI50 [39]: > 100 µM (inactive); GI50 [40]: > 100 µM (inactive); GI50 [41]: > 100 µM (inactive); GI50 [42]: > 100 µM (inactive); GI50 [43]: > 100 µM (inactive); GI50 [44]: > 100 µM (inactive); GI50 [45]: > 100 µM (inactive); GI50 [46]: > 100 µM (inactive); GI50 [47]: > 100 µM (inactive); GI50 [48]: > 100 µM (inactive); GI50 [49]: > 100 µM (inactive); GI50 [50]: > 100 µM (inactive); GI50 [51]: > 100 µM (inactive); GI50 [52]: > 100 µM (inactive); GI50 [53]: > 100 µM (inactive); GI50 [54]: > 100 µM (inactive); GI50 [55]: > 100 µM; GI50 [56]: > 100 µM (inactive); GI50 [57]: > 100 µM (inactive)

For `C[N+]12CCN(c3ccccc31)c1ccccc12.[O-][Cl+3]([O-])([O-])[O-]`, which GI50 [1] is on record?
Its GI50 is > 10 µM (inactive).

And the GI50 [2]?
The GI50 was 6.01 µM (inactive).

And the GI50 [4]?
The GI50 was 3.44 µM (inactive).

What about the GI50 [6] of the same compound?
Its GI50 is > 10 µM (inactive).

And the GI50 [8]?
Its GI50 is 7.46 µM (inactive).

And the GI50 [9]?
Its GI50 is > 10 µM (inactive).

What about the GI50 [10] of the same compound?
The GI50 was 4.79 µM (inactive).

What about the GI50 [11] of the same compound?
The GI50 was > 10 µM (inactive).

And the GI50 [12]?
The GI50 was > 10 µM (inactive).

And the GI50 [14]?
Its GI50 is > 10 µM (inactive).

What about the GI50 [15] of the same compound?
Its GI50 is 7.16 µM (inactive).

And the GI50 [16]?
Its GI50 is > 10 µM (inactive).

And the GI50 [18]?
Its GI50 is 2.29 µM (inactive).

And the GI50 [22]?
Its GI50 is > 10 µM (inactive).

And the GI50 [27]?
The GI50 was > 10 µM (inactive).

What about the GI50 [28] of the same compound?
The GI50 was > 10 µM (inactive).

And the GI50 [30]?
Its GI50 is 4.95 µM (inactive).

What about the GI50 [31] of the same compound?
Its GI50 is > 10 µM (inactive).

And the GI50 [35]?
The GI50 was > 10 µM (inactive).

And the GI50 [36]?
Its GI50 is > 10 µM (inactive).

And the GI50 [38]?
Its GI50 is 7.28 µM (inactive).

And the GI50 [39]?
Its GI50 is > 10 µM (inactive).

What about the GI50 [42] of the same compound?
Its GI50 is 6.15 µM (inactive).

And the GI50 [43]?
The GI50 was > 10 µM (inactive).

And the GI50 [44]?
Its GI50 is 4.91 µM (inactive).

What about the GI50 [45] of the same compound?
Its GI50 is 2.79 µM (inactive).

And the GI50 [47]?
Its GI50 is > 10 µM (inactive).

What about the GI50 [48] of the same compound?
The GI50 was 6.28 µM (inactive).

What about the GI50 [49] of the same compound?
The GI50 was > 10 µM (inactive).

And the GI50 [50]?
The GI50 was > 10 µM (inactive).

What about the GI50 [58] of the same compound?
Its GI50 is > 10 µM (inactive).

What about the GI50 [52] of the same compound?
Its GI50 is 7.73 µM (inactive).

What about the GI50 [53] of the same compound?
Its GI50 is > 10 µM (inactive).

What about the GI50 [55] of the same compound?
Its GI50 is over 10 µM.

And the GI50 [56]?
The GI50 was > 10 µM (inactive).

How did the GI50 [1] turn out when `O=C(Cc1ccccc1)NN1C(=O)/C(=C\c2cccc([N+](=O)[O-])c2)S/C1=N\c1ccccc1` was run?
Its GI50 is > 100 µM (inactive).

And the GI50 [2]?
Its GI50 is > 100 µM (inactive).

What about the GI50 [3] of the same compound?
The GI50 was > 100 µM (inactive).

And the GI50 [4]?
Its GI50 is > 100 µM (inactive).

And the GI50 [5]?
The GI50 was > 100 µM (inactive).

What about the GI50 [7] of the same compound?
The GI50 was > 100 µM (inactive).

What about the GI50 [8] of the same compound?
The GI50 was > 100 µM (inactive).

What about the GI50 [9] of the same compound?
The GI50 was > 100 µM (inactive).

And the GI50 [10]?
Its GI50 is > 100 µM (inactive).

What about the GI50 [11] of the same compound?
The GI50 was > 100 µM (inactive).

What about the GI50 [12] of the same compound?
Its GI50 is > 100 µM (inactive).

And the GI50 [14]?
Its GI50 is > 100 µM (inactive).

What about the GI50 [15] of the same compound?
Its GI50 is > 100 µM (inactive).

And the GI50 [16]?
Its GI50 is > 100 µM (inactive).

And the GI50 [18]?
Its GI50 is > 100 µM (inactive).

What about the GI50 [19] of the same compound?
Its GI50 is > 100 µM (inactive).

And the GI50 [21]?
Its GI50 is > 100 µM (inactive).

What about the GI50 [22] of the same compound?
The GI50 was > 100 µM (inactive).

What about the GI50 [24] of the same compound?
The GI50 was > 100 µM (inactive).

And the GI50 [25]?
Its GI50 is > 100 µM (inactive).

What about the GI50 [26] of the same compound?
The GI50 was > 100 µM (inactive).

And the GI50 [27]?
Its GI50 is > 100 µM (inactive).

What about the GI50 [28] of the same compound?
Its GI50 is > 100 µM (inactive).

What about the GI50 [29] of the same compound?
The GI50 was > 100 µM (inactive).

What about the GI50 [30] of the same compound?
The GI50 was > 100 µM (inactive).

What about the GI50 [32] of the same compound?
Its GI50 is 42.5 µM (inactive).

And the GI50 [34]?
The GI50 was 34.7 µM (inactive).

And the GI50 [35]?
The GI50 was > 100 µM (inactive).

What about the GI50 [36] of the same compound?
Its GI50 is > 100 µM (inactive).

What about the GI50 [37] of the same compound?
Its GI50 is > 100 µM (inactive).

And the GI50 [38]?
The GI50 was > 100 µM (inactive).

And the GI50 [39]?
The GI50 was > 100 µM (inactive).

And the GI50 [40]?
The GI50 was > 100 µM (inactive).

What about the GI50 [41] of the same compound?
The GI50 was > 100 µM (inactive).

What about the GI50 [42] of the same compound?
Its GI50 is > 100 µM (inactive).

What about the GI50 [43] of the same compound?
Its GI50 is > 100 µM (inactive).

What about the GI50 [44] of the same compound?
The GI50 was > 100 µM (inactive).

What about the GI50 [45] of the same compound?
The GI50 was > 100 µM (inactive).

What about the GI50 [47] of the same compound?
The GI50 was > 100 µM (inactive).

And the GI50 [48]?
Its GI50 is > 100 µM (inactive).

What about the GI50 [49] of the same compound?
The GI50 was > 100 µM (inactive).

What about the GI50 [50] of the same compound?
The GI50 was > 100 µM (inactive).

And the GI50 [58]?
The GI50 was 44 µM (inactive).

What about the GI50 [51] of the same compound?
The GI50 was > 100 µM (inactive).

What about the GI50 [52] of the same compound?
The GI50 was > 100 µM (inactive).

What about the GI50 [53] of the same compound?
The GI50 was > 100 µM (inactive).

What about the GI50 [54] of the same compound?
The GI50 was > 100 µM (inactive).

What about the GI50 [55] of the same compound?
The GI50 was over 100 µM.

What about the GI50 [56] of the same compound?
Its GI50 is > 100 µM (inactive).

And the GI50 [57]?
The GI50 was > 100 µM (inactive).
